Measured values as given in PMC8550792, “Evolution of kinase polypharmacology across HSP90 drug discovery” (Cell Chemical Biology, 2021).

Legend:
Assay in all cases: biochemical
Format in all cases: biochemical
382 unique human kinases [1] = target: T1, 382 unique human kinases (Homo sapiens, UniProt O94806); settings: PKCnu/PRKD3, [ATP] 30 µM, compound 10 uM; for remaining activity at 10 µM: read-out: % Enzyme Activity (relative to DMSO controls)
T1 construct: purchased Reaction Biology (HotSpot contract assay)
T1 sequence (O94806 1-890): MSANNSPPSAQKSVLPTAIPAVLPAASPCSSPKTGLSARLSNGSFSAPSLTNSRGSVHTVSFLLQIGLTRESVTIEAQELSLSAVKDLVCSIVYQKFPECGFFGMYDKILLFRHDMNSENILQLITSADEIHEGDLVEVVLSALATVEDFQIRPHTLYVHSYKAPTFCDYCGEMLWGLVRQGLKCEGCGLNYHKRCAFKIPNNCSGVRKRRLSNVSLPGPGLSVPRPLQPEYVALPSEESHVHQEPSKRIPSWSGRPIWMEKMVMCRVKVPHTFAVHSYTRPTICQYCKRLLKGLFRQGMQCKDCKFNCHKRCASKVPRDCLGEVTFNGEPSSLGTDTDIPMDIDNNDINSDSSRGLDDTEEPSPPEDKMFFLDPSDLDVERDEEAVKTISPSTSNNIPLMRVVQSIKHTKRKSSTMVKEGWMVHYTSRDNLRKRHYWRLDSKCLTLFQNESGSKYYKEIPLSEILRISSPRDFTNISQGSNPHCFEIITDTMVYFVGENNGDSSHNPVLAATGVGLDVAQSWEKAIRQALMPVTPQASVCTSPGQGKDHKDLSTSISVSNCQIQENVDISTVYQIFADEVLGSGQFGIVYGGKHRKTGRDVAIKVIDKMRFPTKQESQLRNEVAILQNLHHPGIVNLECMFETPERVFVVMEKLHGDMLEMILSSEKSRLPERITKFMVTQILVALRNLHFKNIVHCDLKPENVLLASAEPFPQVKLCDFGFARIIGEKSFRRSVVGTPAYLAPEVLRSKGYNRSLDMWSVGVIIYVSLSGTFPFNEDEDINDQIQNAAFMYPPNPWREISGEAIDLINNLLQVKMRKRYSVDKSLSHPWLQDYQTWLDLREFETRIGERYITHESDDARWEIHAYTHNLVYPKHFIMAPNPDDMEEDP

382 unique human kinases [2] = target: T2, 382 unique human kinases (Homo sapiens, UniProt P54762); settings: EPHB1, [ATP] 100 µM, compound 10 uM; for remaining activity at 10 µM: read-out: % Enzyme Activity (relative to DMSO controls)
T2 construct: purchased Reaction Biology (HotSpot contract assay)
T2 sequence (P54762 18-984): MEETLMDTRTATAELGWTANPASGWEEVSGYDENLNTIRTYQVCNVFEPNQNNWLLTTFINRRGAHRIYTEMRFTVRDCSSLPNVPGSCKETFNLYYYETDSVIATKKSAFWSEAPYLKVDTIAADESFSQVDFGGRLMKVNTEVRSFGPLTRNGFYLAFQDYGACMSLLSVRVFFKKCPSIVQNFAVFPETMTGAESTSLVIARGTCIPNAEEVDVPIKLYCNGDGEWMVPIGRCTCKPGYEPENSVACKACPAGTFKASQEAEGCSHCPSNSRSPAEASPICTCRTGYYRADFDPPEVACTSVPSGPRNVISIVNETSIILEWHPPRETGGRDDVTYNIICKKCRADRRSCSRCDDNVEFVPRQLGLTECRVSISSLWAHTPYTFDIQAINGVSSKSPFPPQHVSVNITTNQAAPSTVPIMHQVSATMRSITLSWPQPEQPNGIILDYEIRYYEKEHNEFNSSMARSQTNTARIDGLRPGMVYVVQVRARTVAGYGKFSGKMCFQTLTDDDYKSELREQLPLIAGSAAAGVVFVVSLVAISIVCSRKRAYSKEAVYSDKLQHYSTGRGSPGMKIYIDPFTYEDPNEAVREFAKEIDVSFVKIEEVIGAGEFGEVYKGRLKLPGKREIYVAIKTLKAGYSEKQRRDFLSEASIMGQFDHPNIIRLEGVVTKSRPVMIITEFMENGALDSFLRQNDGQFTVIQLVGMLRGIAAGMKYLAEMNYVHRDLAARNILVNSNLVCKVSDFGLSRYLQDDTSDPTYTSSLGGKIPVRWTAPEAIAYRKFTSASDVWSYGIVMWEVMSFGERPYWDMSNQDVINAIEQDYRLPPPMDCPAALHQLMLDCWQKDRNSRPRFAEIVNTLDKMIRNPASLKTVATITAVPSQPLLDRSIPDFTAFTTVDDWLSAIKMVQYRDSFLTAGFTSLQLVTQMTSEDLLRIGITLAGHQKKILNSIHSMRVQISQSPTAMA

382 unique human kinases [3] = target: T3, 382 unique human kinases (Homo sapiens, UniProt O00141); settings: SGK1, 10 uM; for remaining activity at 10 µM: read-out: % Enzyme Activity (relative to DMSO controls)
T3 construct: purchased Reaction Biology (HotSpot contract assay)
T3 sequence (O00141 1-431): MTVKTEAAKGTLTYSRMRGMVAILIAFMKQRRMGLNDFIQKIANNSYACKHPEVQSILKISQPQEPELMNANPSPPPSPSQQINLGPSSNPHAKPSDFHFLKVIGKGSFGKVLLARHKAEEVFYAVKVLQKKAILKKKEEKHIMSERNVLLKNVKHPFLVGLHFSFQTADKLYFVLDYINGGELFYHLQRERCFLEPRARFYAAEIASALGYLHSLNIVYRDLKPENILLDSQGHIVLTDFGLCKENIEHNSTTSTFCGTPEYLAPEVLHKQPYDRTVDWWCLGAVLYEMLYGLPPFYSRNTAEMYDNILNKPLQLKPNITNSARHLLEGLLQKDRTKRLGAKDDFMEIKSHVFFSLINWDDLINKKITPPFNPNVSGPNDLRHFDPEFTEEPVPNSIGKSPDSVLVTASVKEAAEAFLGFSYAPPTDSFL

| SMILES | % Enzyme Activity (relative to DMSO controls) (382 unique human kinases [1]) | remaining activity at 10 µM (382 unique human kinases [1]) | % Enzyme Activity (relative to DMSO controls) (382 unique human kinases [2]) | remaining activity at 10 µM (382 unique human kinases [2]) | % Enzyme Activity (relative to DMSO controls) (382 unique human kinases [3]) | remaining activity at 10 µM (382 unique human kinases [3]) |
| --- | --- | --- | --- | --- | --- | --- |
| CCNC(=O)c1noc(-c2cc(C(C)C)c(O)cc2O)c1-c1ccc(CN2CCOCC2)cc1 [Luminespib] | 116.94% | 120% | 90.73% | 92.3% | 99.71% | 100% |
| CC(C)c1cc(-c2n[nH]c(=O)n2-c2ccc3c(ccn3C)c2)c(O)cc1O [Ganetespib] | – | 54.7% | – | 36% | – | 99% |
